Test systems include NCI-H226 lung; ACHN renal; HS 578T breast; MDA-N; SF-295 CNS; EKVX NSCLC; SNB-19 CNS; MDA-MB-435; HOP-92 NSCLC; K-562 leukemia; HCT-116 colon; OVCAR-8 ovarian; HL-60(TB) leukemia; SNB-75 CNS; NCI/ADR-RES ovarian.
Holding throughout (experiment): NCI tumour cell line growth inhibition, 48 h

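In this assay, cells in 96-well plates receive the compound at five concentrations for 48 hours. Endpoints are linearly interpolated between the surrounding concentrations. The concentration for full growth arrest is given as TGI.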

Consider `CCOC(=O)C(=CNc1ccc(NC2=NCC(C)S2)cc1)C(=O)OCC` (stereo not given), for which the TGI is above 100 µM in the experiment on NCI-H226 lung; above 100 µM in the experiment on ACHN renal; 74.8 µM in the experiment with HS 578T breast; above 100 µM in the experiment with MDA-N; above 100 µM in the experiment with SF-295 CNS; above 100 µM with EKVX NSCLC. Besides, the TGI in the experiment with SNB-19 CNS was above 100 µM; with MDA-MB-435 it was 60.2 µM; with HOP-92 NSCLC, above 86.7 µM; in the experiment with K-562 leukemia, 4.69 µM; with HCT-116 colon, above 100 µM; in the experiment with OVCAR-8 ovarian, above 100 µM. In addition, the TGI is 16.4 µM in the experiment with HL-60(TB) leukemia, above 74.1 µM in the experiment with SNB-75 CNS and 95.1 µM in the experiment with NCI/ADR-RES ovarian.
`CC(=O)NC1C(OCc2ccccc2)OC(CO)C(O)C1OC(C)C(=O)NC(C)C(=O)NC(CCC(=O)NCCCCNc1c2ccccc2nc2cccc([N+](=O)[O-])c12)C(N)=O` (stereo not given): the TGI was found to be 0.43 µM with NCI-H226 lung; 0.0664 µM in the experiment on ACHN renal; 0.562 µM in the experiment with HS 578T breast; 0.0532 µM with MDA-N; 1.66 µM in the experiment with SF-295 CNS; 0.322 µM in the experiment on EKVX NSCLC. For the same compound, the TGI with SNB-19 CNS is 0.242 µM; with MDA-MB-435, 0.105 µM; in the experiment on HOP-92 NSCLC, 0.101 µM; in the experiment with K-562 leukemia, 12.5 µM; in the experiment with HCT-116 colon, 0.068 µM; in the experiment with OVCAR-8 ovarian, 0.166 µM. In addition, the TGI in the experiment with HL-60(TB) leukemia was determined as 0.207 µM; with SNB-75 CNS, 0.569 µM; in the experiment on NCI/ADR-RES ovarian it was 0.524 µM.
Turning to `Cc1ccc(-c2nc(N/N=C/C=C/c3ccccc3)c3ccccc3n2)cc1`, the TGI in the experiment on NCI-H226 lung is above 100 µM; in the experiment with ACHN renal, 75.9 µM; in the experiment with HS 578T breast, above 100 µM; with MDA-N, above 100 µM; in the experiment with SF-295 CNS, above 100 µM; with EKVX NSCLC, 51.8 µM. For the same compound, the TGI in the experiment with SNB-19 CNS, in the experiment on MDA-MB-435, in the experiment with HOP-92 NSCLC, in the experiment with K-562 leukemia, in the experiment on HCT-116 colon and with OVCAR-8 ovarian was above 100 µM throughout. Besides, the TGI with HL-60(TB) leukemia, with SNB-75 CNS and in the experiment with NCI/ADR-RES ovarian was above 100 µM throughout.
With `O=c1c2cc(S(=O)(=O)O)ccc2nc(COc2ccc(Oc3ccc(Cl)cc3Cl)cc2)n1-c1ccc(Oc2ccc(Cl)cc2)cc1Cl`, the TGI was determined as 48.9 µM in the experiment on NCI-H226 lung; 56.6 µM in the experiment on ACHN renal; 42.3 µM in the experiment on HS 578T breast; 59.2 µM in the experiment with MDA-N; 35.5 µM with SF-295 CNS; 44.5 µM with EKVX NSCLC. Besides, the TGI with SNB-19 CNS turned out to be 67.7 µM; with MDA-MB-435, 39.6 µM; with HOP-92 NSCLC, 31.4 µM; in the experiment on K-562 leukemia it was 83.1 µM; in the experiment on HCT-116 colon, 58.4 µM; in the experiment with OVCAR-8 ovarian, 44.3 µM. Further, the TGI in the experiment on HL-60(TB) leukemia worked out at 76 µM; with SNB-75 CNS it was 50.1 µM; with NCI/ADR-RES ovarian it was 39.5 µM.

Source of the values: PubChem BioAssay (NCI).
